± gives the uncertainty stated by the source.
System: TK6
Assay: relative viability (MTT, 20-24 h post-exposure) vs solvent control; higher = less cytotoxic
Conditions: exposure time: 4 h (S9 compounds: 3 h + 4 h recovery)
Procedure: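 Human TK6 lymphoblastoid cells were exposed for 4 h to three concentrations of each compound at four ring-trial labs. Compounds P, Q, R and CC were given for 3 h with rat liver S9 plus 4 h recovery. Relative survival was measured by MTT assay 20-24 h after exposure, as % viability relative to solvent control (mean with SD), in the Result 1 round with preselected concentrations.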

CC1(C)S[C@@H]2[C@H](NC(=O)[C@H](N)c3ccccc3)C(=O)N2[C@H]1C(=O)O [Ampicillin]
relative viability [%]
Conditions | batch: 1, lab: Lab 1 | batch: 1, lab: Lab 2 | batch: 1, lab: Lab 3 | batch: 1, lab: Lab 4
concentration: 0.11mM | 102 ± 5.6 | 104 ± 3 | 115 ± 6.7 | 127 ± 17
concentration: 0.33mM | 94.9 ± 3.7 | 115 ± 8.7 | 123 ± 5.7 | 126 ± 9.4
concentration: 1mM | 99.9 ± 6.3 | 98.3 ± 12 | 121 ± 3.4 | 112 ± 9.2

O=C(O)CCCc1ccc(N(CCCl)CCCl)cc1 [Chlorambucil]
relative viability [%]
Conditions | batch: 3, lab: Lab 1 | batch: 3, lab: Lab 2 | batch: 3, lab: Lab 3 | batch: 3, lab: Lab 4
concentration: 0.44uM | 95.2 ± 3.8 | 84.9 ± 7.7 | 80.8 ± 2.1 | 97.2 ± 12
concentration: 1.33uM | 89.6 ± 3.8 | 95.9 ± 17 | 74.1 ± 1.5 | 92.3 ± 14
concentration: 4uM | 78.9 ± 3.7 | 71.7 ± 8.3 | 67.2 ± 0.8 | 75.3 ± 14

C[C@@H]1C[C@@H]([C@H](O)CC2CC(=O)NC(=O)C2)C(=O)[C@@H](C)C1 [Cycloheximide]
relative viability [%]
Conditions | batch: 1, lab: Lab 1 | batch: 1, lab: Lab 2 | batch: 1, lab: Lab 3 | batch: 1, lab: Lab 4
concentration: 1.11uM | 89.7 ± 6.7 | 85.7 ± 4.6 | 94.1 ± 0.6 | 86.8 ± 5.5
concentration: 3.33uM | 64 ± 7.6 | 65.6 ± 6.2 | 72.2 ± 7.4 | 69.7 ± 4.6
concentration: 10uM | 49.4 ± 6.1 | 46.1 ± 4.8 | 41.3 ± 2.9 | 57.4 ± 5.4

CCC1(c2ccccc2)C(=O)N=C([O-])NC1=O.[Na+] (stereo unspecified) [Phenobarbital sodium]
relative viability [%]
Conditions | batch: 4, lab: Lab 1 | batch: 4, lab: Lab 2 | batch: 4, lab: Lab 3 | batch: 4, lab: Lab 4
concentration: 0.11mM | 98.3 ± 4.8 | 85.5 ± 11 | 149 ± 13 | 95.2 ± 10
concentration: 0.33mM | 95.6 ± 4.8 | 84.2 ± 10 | 119 ± 15 | 96.8 ± 6.2
concentration: 1mM | 95.7 ± 3.7 | 82.3 ± 8.5 | 116 ± 7.6 | 99.5 ± 8.9

Cc1c(N)nc(C(CC(N)=O)NCC(N)C(N)=O)nc1C(=O)NC(C(=O)NC(C)C(O)C(C)C(=O)NC(C(=O)NCCc1nc(-c2nc(C(=O)NCCC[S+](C)C)cs2)cs1)C(C)O)C(O[C@@H]1O[C@@H](CO)[C@@H](O)[C@H](O)[C@@H]1O[C@H]1O[C@H](CO)[C@@H](O)[C@H](OC(N)=O)[C@@H]1O)c1cnc[nH]1.O=S(=O)([O-])O (stereo partly specified) [Bleomycin (sulfate)]
Conditions | relative viability [%]
concentration: 5ug/mL, batch: 2, lab: Lab 1 | 80.5 ± 4.2
concentration: 5ug/mL, batch: 2, lab: Lab 2 | 53.4 ± 7.1
concentration: 5ug/mL, batch: 2, lab: Lab 3 | 51 ± 6.2
concentration: 5ug/mL, batch: 2, lab: Lab 4 | 56.4 ± 1.8
concentration: 5ug/mL, batch: 3, lab: Lab 1 | 78 ± 4
concentration: 5ug/mL, batch: 3, lab: Lab 2 | 66 ± 7.1
concentration: 5ug/mL, batch: 3, lab: Lab 3 | 49.7 ± 3.8
concentration: 5ug/mL, batch: 3, lab: Lab 4 | 54.6 ± 2.8
concentration: 10ug/mL, batch: 1, lab: Lab 1 | 41.8 ± 3.7
concentration: 10ug/mL, batch: 1, lab: Lab 2 | 59.6 ± 4.6
concentration: 10ug/mL, batch: 1, lab: Lab 3 | 53 ± 3.7
concentration: 10ug/mL, batch: 1, lab: Lab 4 | 50.6 ± 1.6

OC[C@@H](O)[C@@H](O)[C@H](O)[C@H](O)CO [D-Mannitol]
relative viability [%]
Conditions | batch: 1, lab: Lab 1 | batch: 1, lab: Lab 2 | batch: 1, lab: Lab 3 | batch: 1, lab: Lab 4
concentration: 0.11mM | 90 ± 3.8 | 97 ± 6.5 | 145 ± 3.4 | 110 ± 6.5
concentration: 0.33mM | 98.7 ± 5.1 | 104 ± 14 | 137 ± 5.8 | 107 ± 5.4
concentration: 1mM | 103 ± 9.3 | 104 ± 12 | 139.3 ± 1 | 107 ± 5

Nc1ccc2cc3ccccc3cc2c1 [2-Aminoanthracene]
relative viability [%]
Conditions | batch: 4, lab: Lab 1 | batch: 4, lab: Lab 2 | batch: 4, lab: Lab 3 | batch: 4, lab: Lab 4
concentration: 0.22ug/mL | 95.8 ± 6.6 | 97.3 ± 23 | 102 ± 11 | 96.3 ± 3
concentration: 0.67ug/mL | 94.8 ± 3.9 | 87.8 ± 18 | 95.5 ± 8.5 | 93.5 ± 2.5
concentration: 2ug/mL | 47 ± 5.6 | 16.8 ± 1.3 | 23.1 ± 0.8 | 9.75 ± 11

CN[C@@H]1C[C@H]2O[C@@](C)([C@@H]1OC)n1c3ccccc3c3c4c(c5c6ccccc6n2c5c31)C(=O)NC4 [Staurosporine]
relative viability [%]
Conditions | batch: 3, lab: Lab 1 | batch: 3, lab: Lab 2 | batch: 3, lab: Lab 3 | batch: 3, lab: Lab 4
concentration: 3nm | 104 ± 3.9 | 114 ± 16 | 130 ± 7.6 | 97.4 ± 3.9
concentration: 10nm | 103 ± 4.5 | 99.1 ± 2.1 | 111 ± 5.5 | 91.4 ± 14
concentration: 30nm | 97 ± 2.9 | 69.7 ± 3.1 | 69.7 ± 4.3 | 73.9 ± 7.5

Reference: the supplement of paper PMC12646585
